Experimental data from US10149837B2, “Selective agonists of beta-adrenergic type 3 receptors (BAR3) and use thereof” (UNIVERSITA' DEGLI STUDI DI BARI, priority 2015, dated 2018).
Entries after “also recorded” stand apart in the source; their conditions may differ.

Legend:
AQP2 = assay: kidney slices: AQP2 localisation by confocal laser scanning after stimulation; format: cell-based, mice; conditions: slices of vital tissue from murine C57BL-6 kidneys, 45 minutes of stimulation
Protocol: By the technique of “kidney slices”, thin slices of vital tissue from murine C57BL-6 kidneys have been obtained which, maintained in culture medium and appropriate atmosphere, have been stimulated with agonists able to increase the intracellular levels of cAMP (forskolin and vasopressin) and with the agonist of murine BRL37344 BAR3. After 45 minutes of stimulation the tissues have been fixed, marked for AQP2 and observed by confocal laser scanning.

[1] = system: conditional knockout mice for AVPR2; assay: diuresis and urine osmolality in the animal model of X-linked nephrogenic diabetes insipidus (metabolic cage); format: in vivo
Protocol: At one hour from the injection of the compound, the diuresis of the treated mice is set to zero compared to control animals.
In the mouse affected by nephrogenic diabetes insipidus (X-NDI) for conditional deletion of the AVPR2 receptor, the compound BRL37344 has been administered by intraperitoneal injection at the dosage of 0.6 mg/Kg. Five animals received the compound whereas as many control animals received the vehicle only (physiological saline). The cumulative diuresis has been measured in metabolic cage in both animal groups.
The data obtained are in line with a transient effect induced by the stimulation of the renal BAR3 receptors by BRL37344.

[2] = X-NDI animal model, summary statement, no time point
[3] = X-NDI mice, 0.6 mg/Kg intraperitoneal, second hour after injection, vs control group, acetic acid sodium hydrate, 0.6 mg/kg

| Compound | apical membrane expression (repositioning) of AQP2 (AQP2) | apical membrane expression (repositioning) of AQP2 (AQP2; acetic acid sodium hydrate) | diuresis [1, 2] | urine osmolality [1, 2] | cumulative diuresis ([1]; X-NDI mice, 0.6 mg/Kg intraperitoneal, end of third hour after injection, vs control group, acetic acid sodium hydrate, 0.6 mg/kg) | cumulative diuresis ([1]; X-NDI mice, 0.6 mg/Kg intraperitoneal, first hour after injection, vs control group) | cumulative diuresis [1, 3] | urine osmolality [1, 3] | urine osmolality ([1]; X-NDI mice, 0.6 mg/Kg intraperitoneal, third hour after injection, vs control group, acetic acid sodium hydrate, 0.6 mg/kg) |
| --- | --- | --- | --- | --- | --- | --- | --- | --- | --- |
| NC(=O)CC[C@@H]1NC(=O)[C@H](Cc2ccccc2)NC(=O)[C@H](Cc2ccc(O)cc2)NC(=O)[C@@H](N)CSSC[C@@H](C(=O)N2CCC[C@H]2C(=O)N[C@@H](CCCN=C(N)N)C(=O)NCC(N)=O)NC(=O)[C@H](CC(N)=O)NC1=O [Vasopressin, vasopressin] | translocates AQP2 on the apical membrane of the tubular cells | – | – | – | – | – | – | – | – |
| C[C@H](Cc1ccc(OCC(=O)O)cc1)NC[C@H](O)c1cccc(Cl)c1.O.[Na] (relative stereo) [BRL37344, (±)-(R*,R*)-[4-[2-[[2-(3-Chlorophenyl)-2-hydroxyethyl]amino]propyl]phenoxy] acetic acid sodium hydrate] | – | able to increase the apical levels of AQP2 with an effect comparable to that produced by vasopressin; also recorded: determines a repositioning of the marking of AQP2 on the apical membrane | drastic reduction of diuresis | increase of urine osmolality | still drastically reduced; also recorded: still remained statistically lower than that of the control group | set to zero | drastically reduced; also recorded: statistically reduced compared to the control group | significantly increased | tendency to increase although not statistically significant; also recorded: on average higher although not statistically different from that of the control group |
